Results taken from BindingDB's records for patent US10774052 (Celgene CAR LLC; Sanofi, 2020).

Target: Fibroblast growth factor receptor 4 (Homo sapiens, UniProt P22455)
Assay: Omnia Assay Protocol for Potency Assessment Against (method a)
Description: A solution of 1.4×ATP (AS001A) and 5× Tyr-Sox conjugated peptide substrate (KNZ3101) were prepared in 1× kinase reaction buffer consisting of 20 mM Tris, pH 7.5, 5 mM MgCl2, 1 mM EGTA, 5 mM β-glycerophosphate, 5% glycerol (10× stock, KB002A) and 0.2 mM DTT (DS001A). […] The serially diluted compounds were prepared on a Tecan EV0100. A second addition of 10 μl of Tyr-Sox FGFR4 substrate was added to each well and the kinase reactions were started with the addition of 35 μL of 1.4×ATP. The reactions were monitored every 71 seconds for 240 minutes at λex360/λem485 in a Synergy plate reader from BioTek (Winooski, Vt.).

Fibroblast growth factor receptor 4, sequence (P22455 whole entry): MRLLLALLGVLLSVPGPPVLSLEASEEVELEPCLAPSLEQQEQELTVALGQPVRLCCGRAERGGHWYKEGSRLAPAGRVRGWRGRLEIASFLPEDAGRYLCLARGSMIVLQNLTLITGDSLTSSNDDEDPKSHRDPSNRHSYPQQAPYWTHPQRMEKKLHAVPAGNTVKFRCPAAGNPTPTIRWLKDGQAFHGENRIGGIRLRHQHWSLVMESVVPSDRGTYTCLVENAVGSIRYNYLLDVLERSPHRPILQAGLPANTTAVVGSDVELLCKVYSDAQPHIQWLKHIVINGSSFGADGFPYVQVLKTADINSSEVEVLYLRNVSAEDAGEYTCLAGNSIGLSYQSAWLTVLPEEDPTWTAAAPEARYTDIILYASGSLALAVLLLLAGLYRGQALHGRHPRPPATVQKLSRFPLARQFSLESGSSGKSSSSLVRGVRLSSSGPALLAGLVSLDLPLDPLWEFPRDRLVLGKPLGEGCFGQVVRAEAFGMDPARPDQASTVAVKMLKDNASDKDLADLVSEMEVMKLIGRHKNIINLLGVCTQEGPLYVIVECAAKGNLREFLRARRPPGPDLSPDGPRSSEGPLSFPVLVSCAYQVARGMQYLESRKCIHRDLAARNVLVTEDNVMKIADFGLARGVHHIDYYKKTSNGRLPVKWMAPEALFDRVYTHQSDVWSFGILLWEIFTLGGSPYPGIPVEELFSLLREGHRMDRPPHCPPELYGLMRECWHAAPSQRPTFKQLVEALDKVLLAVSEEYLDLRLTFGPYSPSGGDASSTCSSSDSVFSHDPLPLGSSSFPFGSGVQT

## C=CC(=O)Nc1cc(C2=CCN(CC)CC2)ccc1Nc1ncc2c(n1)N(CC)C(=O)N(c1cc(OC)cc(OC)c1)C2 [US10774052, Compound I-56]
  IC50: < 100 nM
